Results on three compounds are retold here after paper PMC2843403 (Bioorganic & medicinal chemistry, 2010).

For data set [1], the target named is T1, PKCδ C1B (Mus musculus, UniProt P28867). As to the kind of experiment: Fluorescence quenching binding to PKCδ C1B. The following applies: fit of fluorescence quenching of PKCδ C1B (2 μM), Fig. 3.
Target sequence in this assay (P28867 231-280): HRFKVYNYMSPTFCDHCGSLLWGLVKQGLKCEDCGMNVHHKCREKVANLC
Data set [2] has as its target T1, PKCδ C1B. As to the kind of experiment: Emission maximum of ligand in presence of PKCδ C1B. The data set is classed as binding. The following applies: buffer versus presence of C1B subdomain (590 to 560 nm).
Target sequence in this assay (P28867 231-280 limits assumed): as the sequence (P28867 231-280) above
The next data set can be described thus: Solubility. The format is physicochemical.

For the compound `CCCCCCCCCCCCCC(=O)O[C@@H]1[C@@H](C)[C@@]2(O)[C@@H](C=C(CO)C[C@]3(O)C(=O)C(C)=C[C@@H]23)[C@@H]2C(C)(C)[C@]12OC(C)=O` [TPA, 12-O-tetradecanoylphorbol-13-acetate, reference compound], the Hill coefficient at PKCδ C1B [1] worked out at 1.8.
With `CCCCCCCCCCCCCCCCOc1ccc(/C=C/C(O)=C/C(=O)/C=C/c2ccc(O)c(OC)c2)cc1OC` [Compound 4, (1E, 4Z, 6E)-7-(4-(hexadecyloxy)-3-methoxyphenyl)-5-hydroxy-1-(4-hydroxy-3-methoxyphenyl)hepta-1,4,6-trien-3-one], the Hill coefficient on PKCδ C1B [1] is listed as 2. In addition, the “Blue shift of emission maximum” value on PKCδ C1B [2] worked out at 30 nm.
Take `COc1cc(/C=C/C(=O)CC(=O)/C=C/c2ccc(O)c(OC)c2)ccc1O` [Compound 1, Curcumin]: the Hill coefficient at PKCδ C1B [1] is recorded as 1.6. In the data set “Solubility”, the Solubility in water result is “poorly soluble”.
